Results on 30 compounds are retold here after patent US8569344B2, “N-piperidinyl acetamide derivatives as calcium channel blockers” (Zalicus Pharmaceuticals Ltd., priority 2008, dated 2013).

Like-named read-outs stand apart in the source and are kept apart here.

Experiment [1] deals with T1, human α1G T-type channels (Homo sapiens, UniProt O43497).
T1 construct: expressed in transfected cells; host or cells: HEK 293
Put plainly: T-type calcium channel block, whole cell patch clamp in HEK cells (α1G). The experiment is classed as cell-based.

Experiment [2] has as its target T2, human α1H T-type channels (Homo sapiens, UniProt O95180).
T2 construct: expressed in transfected cells; host or cells: HEK 293
Put plainly: T-type calcium channel block, whole cell patch clamp in HEK cells (α1H). The experiment is classed as cell-based. Background: In patch-clamp work, channel activity is measured electrically.

Setting [3] is: HEK cells, patch clamp, mainly non-inactivated protocol, values above 10 μM shown as 10 μM, below 0.30 μM shown as 0.30 μM, read-out: T-type Calcium Channel Block α1G IC50.
[4] abbreviates: HEK cells, patch clamp, mainly non-inactivated protocol, values above 10 μM shown as 10 μM, read-out: T-type Calcium Channel Block α1H IC50.

T2 sequence (O95180 whole entry): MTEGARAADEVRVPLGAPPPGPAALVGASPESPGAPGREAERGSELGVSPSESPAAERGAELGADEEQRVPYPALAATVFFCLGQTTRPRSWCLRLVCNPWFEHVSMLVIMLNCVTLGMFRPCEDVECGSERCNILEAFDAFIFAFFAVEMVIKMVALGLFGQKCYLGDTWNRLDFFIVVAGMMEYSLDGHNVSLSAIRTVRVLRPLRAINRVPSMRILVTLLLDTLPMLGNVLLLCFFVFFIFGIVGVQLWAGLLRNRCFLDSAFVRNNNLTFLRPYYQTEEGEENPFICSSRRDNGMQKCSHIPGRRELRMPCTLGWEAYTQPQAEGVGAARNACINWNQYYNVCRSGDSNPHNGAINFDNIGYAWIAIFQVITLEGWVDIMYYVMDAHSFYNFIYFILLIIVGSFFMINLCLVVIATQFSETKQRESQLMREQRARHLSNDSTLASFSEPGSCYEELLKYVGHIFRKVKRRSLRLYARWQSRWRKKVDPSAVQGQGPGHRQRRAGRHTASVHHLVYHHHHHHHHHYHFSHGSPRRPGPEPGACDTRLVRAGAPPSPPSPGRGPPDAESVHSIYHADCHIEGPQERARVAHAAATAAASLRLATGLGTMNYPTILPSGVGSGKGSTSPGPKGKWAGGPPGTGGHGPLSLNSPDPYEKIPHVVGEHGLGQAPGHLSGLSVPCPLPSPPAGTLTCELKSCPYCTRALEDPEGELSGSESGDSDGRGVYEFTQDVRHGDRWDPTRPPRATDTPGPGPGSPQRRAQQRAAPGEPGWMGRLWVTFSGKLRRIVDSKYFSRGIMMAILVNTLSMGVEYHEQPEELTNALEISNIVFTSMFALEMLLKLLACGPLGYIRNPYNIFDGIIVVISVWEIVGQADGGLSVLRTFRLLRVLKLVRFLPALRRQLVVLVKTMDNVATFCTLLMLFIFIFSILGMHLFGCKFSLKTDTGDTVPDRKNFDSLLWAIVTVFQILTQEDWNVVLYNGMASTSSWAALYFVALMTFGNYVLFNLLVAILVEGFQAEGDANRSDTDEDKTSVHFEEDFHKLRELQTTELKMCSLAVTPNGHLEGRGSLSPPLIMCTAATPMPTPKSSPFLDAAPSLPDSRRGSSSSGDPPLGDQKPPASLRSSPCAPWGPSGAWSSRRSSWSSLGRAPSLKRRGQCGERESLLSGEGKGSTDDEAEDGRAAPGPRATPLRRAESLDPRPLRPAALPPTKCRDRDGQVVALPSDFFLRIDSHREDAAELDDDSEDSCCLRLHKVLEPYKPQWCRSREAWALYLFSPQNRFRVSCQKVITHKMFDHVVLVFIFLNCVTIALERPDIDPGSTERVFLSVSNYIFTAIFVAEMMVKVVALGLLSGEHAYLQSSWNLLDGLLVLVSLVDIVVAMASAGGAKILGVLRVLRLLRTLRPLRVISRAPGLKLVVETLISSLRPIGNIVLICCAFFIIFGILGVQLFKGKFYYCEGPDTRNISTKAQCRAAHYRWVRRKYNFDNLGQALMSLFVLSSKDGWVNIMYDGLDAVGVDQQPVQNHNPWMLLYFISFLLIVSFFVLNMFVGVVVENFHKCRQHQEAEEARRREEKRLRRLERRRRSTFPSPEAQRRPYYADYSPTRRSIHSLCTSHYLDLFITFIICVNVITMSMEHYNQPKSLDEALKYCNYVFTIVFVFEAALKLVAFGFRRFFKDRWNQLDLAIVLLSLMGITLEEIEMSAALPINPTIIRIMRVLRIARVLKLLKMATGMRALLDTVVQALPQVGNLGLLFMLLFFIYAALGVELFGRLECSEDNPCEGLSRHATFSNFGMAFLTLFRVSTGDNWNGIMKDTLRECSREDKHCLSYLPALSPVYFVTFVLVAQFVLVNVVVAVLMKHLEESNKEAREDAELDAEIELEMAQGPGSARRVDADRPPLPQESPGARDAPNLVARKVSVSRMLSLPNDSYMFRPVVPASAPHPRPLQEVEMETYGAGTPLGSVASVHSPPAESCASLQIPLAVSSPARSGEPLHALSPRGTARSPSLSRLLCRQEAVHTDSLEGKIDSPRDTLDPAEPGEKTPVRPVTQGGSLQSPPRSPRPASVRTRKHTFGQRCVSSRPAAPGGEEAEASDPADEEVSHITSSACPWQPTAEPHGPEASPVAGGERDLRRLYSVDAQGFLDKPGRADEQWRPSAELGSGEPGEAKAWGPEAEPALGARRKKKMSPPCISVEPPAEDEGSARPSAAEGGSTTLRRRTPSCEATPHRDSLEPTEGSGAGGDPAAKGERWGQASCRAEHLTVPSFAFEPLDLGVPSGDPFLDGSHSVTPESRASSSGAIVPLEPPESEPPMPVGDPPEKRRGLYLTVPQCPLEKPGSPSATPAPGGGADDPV
T1 sequence (O43497 whole entry): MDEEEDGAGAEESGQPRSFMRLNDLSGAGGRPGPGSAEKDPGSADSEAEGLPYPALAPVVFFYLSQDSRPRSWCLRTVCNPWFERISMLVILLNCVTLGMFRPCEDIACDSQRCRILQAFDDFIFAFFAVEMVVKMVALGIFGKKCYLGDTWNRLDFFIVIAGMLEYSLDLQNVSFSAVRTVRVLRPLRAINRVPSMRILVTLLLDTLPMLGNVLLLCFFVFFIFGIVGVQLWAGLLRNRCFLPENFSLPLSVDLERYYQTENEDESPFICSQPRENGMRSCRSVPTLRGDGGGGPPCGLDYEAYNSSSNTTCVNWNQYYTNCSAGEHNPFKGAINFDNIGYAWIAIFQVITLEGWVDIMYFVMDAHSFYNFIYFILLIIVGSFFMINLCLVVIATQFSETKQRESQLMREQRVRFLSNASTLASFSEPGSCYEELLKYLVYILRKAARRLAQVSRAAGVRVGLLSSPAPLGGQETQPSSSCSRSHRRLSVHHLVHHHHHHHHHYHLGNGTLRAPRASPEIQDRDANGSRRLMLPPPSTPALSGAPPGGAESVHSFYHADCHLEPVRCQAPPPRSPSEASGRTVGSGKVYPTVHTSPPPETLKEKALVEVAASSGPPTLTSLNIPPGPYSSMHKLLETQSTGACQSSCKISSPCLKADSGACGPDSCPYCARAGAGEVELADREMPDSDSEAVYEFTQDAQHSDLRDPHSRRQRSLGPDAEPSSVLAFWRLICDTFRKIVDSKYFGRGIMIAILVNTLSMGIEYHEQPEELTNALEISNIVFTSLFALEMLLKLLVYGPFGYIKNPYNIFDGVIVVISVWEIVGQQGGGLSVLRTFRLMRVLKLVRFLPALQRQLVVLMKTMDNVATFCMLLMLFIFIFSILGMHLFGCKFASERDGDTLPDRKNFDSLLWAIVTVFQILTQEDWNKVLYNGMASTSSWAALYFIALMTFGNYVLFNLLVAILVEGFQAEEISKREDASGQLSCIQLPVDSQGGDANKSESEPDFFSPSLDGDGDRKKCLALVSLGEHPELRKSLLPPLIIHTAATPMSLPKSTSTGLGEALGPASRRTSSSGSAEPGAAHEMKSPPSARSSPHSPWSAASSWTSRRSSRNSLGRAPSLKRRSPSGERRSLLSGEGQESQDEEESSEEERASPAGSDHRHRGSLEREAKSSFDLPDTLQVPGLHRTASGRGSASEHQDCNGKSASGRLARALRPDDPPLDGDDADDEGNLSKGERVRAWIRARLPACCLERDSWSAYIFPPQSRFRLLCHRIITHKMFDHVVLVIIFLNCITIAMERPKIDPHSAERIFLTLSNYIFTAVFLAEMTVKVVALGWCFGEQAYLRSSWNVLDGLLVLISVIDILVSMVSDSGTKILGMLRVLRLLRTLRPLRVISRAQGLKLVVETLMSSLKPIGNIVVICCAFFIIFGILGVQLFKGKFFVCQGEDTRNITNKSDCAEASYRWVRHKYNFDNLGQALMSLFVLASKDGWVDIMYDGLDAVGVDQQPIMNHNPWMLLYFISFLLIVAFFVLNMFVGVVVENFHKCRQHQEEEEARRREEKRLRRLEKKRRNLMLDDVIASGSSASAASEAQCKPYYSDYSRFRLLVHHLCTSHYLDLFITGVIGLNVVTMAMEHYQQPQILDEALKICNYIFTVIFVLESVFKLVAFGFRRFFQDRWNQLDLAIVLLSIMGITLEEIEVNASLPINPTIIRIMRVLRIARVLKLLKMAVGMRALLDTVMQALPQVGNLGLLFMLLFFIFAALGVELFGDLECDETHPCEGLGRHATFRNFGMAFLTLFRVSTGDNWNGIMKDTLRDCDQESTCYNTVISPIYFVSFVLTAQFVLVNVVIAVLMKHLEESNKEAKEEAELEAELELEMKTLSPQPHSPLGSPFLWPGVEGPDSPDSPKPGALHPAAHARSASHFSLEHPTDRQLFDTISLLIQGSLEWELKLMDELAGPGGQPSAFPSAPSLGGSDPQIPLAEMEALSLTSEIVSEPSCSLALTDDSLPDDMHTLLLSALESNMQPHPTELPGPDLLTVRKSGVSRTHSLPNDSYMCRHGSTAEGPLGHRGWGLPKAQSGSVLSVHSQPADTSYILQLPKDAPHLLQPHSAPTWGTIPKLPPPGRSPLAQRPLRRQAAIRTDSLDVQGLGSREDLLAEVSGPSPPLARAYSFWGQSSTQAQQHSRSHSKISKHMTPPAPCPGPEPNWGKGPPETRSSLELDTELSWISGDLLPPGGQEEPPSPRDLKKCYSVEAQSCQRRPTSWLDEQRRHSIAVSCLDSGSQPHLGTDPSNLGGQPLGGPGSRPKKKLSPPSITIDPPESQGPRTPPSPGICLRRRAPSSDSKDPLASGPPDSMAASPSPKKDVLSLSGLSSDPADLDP

The IC50 is the concentration that inhibits the measured activity by half. For `CN(CCN1CCC(CNC(=O)c2cc(F)cc(C(F)(F)F)c2)CC1)C(=O)NC1CCCCC1` [Compound 525, N-((1-(2-(3-cyclohexyl-1-methylureido)ethyl)piperidin-4-yl)methyl)-3-fluoro-5-(trifluoromethyl) benzamide], the IC50 amounted to 2.36 µM in experiment [1] (setting [3]) and 0.77 µM in experiment [2] (setting [4]).

Consider `CCCNC(=O)N(C)CCN1CCC(CNC(=O)c2cc(F)cc(C(F)(F)F)c2)CC1` [Compound 526, 3-fluoro-N-((1-(2-(1-methyl-3-propylureido)ethyl)piperidin-4-yl)methyl)-5-(trifluoromethyl)benzamide], for which the figures for the IC50 in experiment [1] (setting [3]) and in experiment [2] (setting [4]) were more than 10 µM and 3.24 µM, respectively.

With `O=C(CN1CCC(CNC(=O)c2cccc(Cl)c2)CC1)NN1CCCCC1` [Compound 527, 3-chloro-N-((1-(2-oxo-2-(piperidin-1-ylamino)ethyl)piperidin-4-yl)methyl)benzamide], the half-inhibitory concentration (IC50) in experiment [1] (setting [3]) turned out to be 2.65 µM; in experiment [2] (setting [4]), 2.84 µM.

On to `CC1(NC(=O)CN2CCC(CNC(=O)c3ccccc3)CC2)CCC1` [Compound 528, N-((1-(2-(1-methylcyclobutylamino)-2-oxoethyl)piperidin-4-yl)methyl) benzamide], for which the 50% inhibitory concentration (IC50) was more than 10 µM in experiment [1] (setting [3]) and 8.54 µM in experiment [2] (setting [4]).

Turning to `CC1(NC(=O)CN2CCC(CNC(=O)c3ccc(F)cc3)CC2)CCC1` [Compound 529, 4-fluoro-N-((1-(2-(1-methylcyclobutyl-amino)-2-oxoethyl)piperidin-4-yl)methyl)benzamide], the IC50 in experiment [1] (setting [3]) turned out to be 5.44 µM; in experiment [2] (setting [4]) it was 2.51 µM.

With `O=C(NC1CCCCC1)OCCN1CCC(CNC(=O)c2cc(F)cc(C(F)(F)F)c2)CC1` [Compound 530, 2-(4-((3-fluoro-5-(trifluoromethyl)benzamido)methyl)piperidin-1-yl)ethyl cyclohexylcarbamate], the IC50 in experiment [1] (setting [3]) worked out at 0.59 µM; in experiment [2] (setting [4]), 0.86 µM.

Turning to `COc1cc(F)cc(C(=O)NCC2CCN(CC(=O)NC3CCCC3)CC2)c1` [Compound 532, N-((1-(2-(cyclopentylamino)-2-oxoethyl)piperidin-4-yl)methyl)-3-fluoro-5-methoxybenzamide], the IC50 in experiment [1] (setting [3]) was less than 0.3 µM; in experiment [2] (setting [4]) it was 0.13 µM.

Regarding `Cc1cc(F)cc(C(=O)NCC2CCN(CC(=O)NC3CCCC3)CC2)c1` [Compound 533, N-((1-(2-(cyclopentylamino)-2-oxoethyl)piperidin-4-yl)methyl)-3-fluoro-5-methylbenzamide], the IC50 worked out at 0.43 µM in experiment [1] (setting [3]) and 0.4 µM in experiment [2] (setting [4]).

Turning to `O=C(CN1CCC(CNC(=O)c2cccc(Cl)c2)CC1)NC1CCCC1` [Compound 534, 3-chloro-N-((1-(2-(cyclopentylamino)-2-oxoethyl)piperidin-4-yl)methyl) benzamide], the IC50 in experiment [1] (setting [3]) was determined as 0.38 µM; in experiment [2] (setting [4]), 0.42 µM.

For `O=C(CN1CCC(CNC(=O)c2cccc(F)c2)CC1)NC1CCCC1` [Compound 535, N-((1-(2-(cyclopentylamino)-2-oxoethyl)piperidin-4-yl)methyl)-3-fluorobenzamide], the IC50 in experiment [1] (setting [3]) was 3.62 µM; in experiment [2] (setting [4]) it was 2.14 µM.

For the compound `O=C(CN1CCC(CNC(=O)c2cccc(OC(F)(F)F)c2)CC1)NC1CCCC1` [Compound 536, N-((1-(2-(cyclopentylamino)-2-oxoethyl)piperidin-4-yl)methyl)-3-(trifluoromethoxy)benzamide], the 50% inhibitory concentration (IC50) in experiment [1] (setting [3]) was less than 0.3 µM; in experiment [2] (setting [4]) it was 0.12 µM.

For the compound `Cc1cc(C)cc(C(=O)NCC2CCN(CC(=O)N(C)C(C)(C)C)CC2)c1` [Compound 539, N-((1-(2-(tert-butyl(methyl)amino)-2-oxoethyl)piperidin-4-yl)methyl)-3,5-dimethylbenzamide], the figures for the IC50 in experiment [1] (setting [3]) and in experiment [2] (setting [4]) were 1.68 µM and 0.51 µM, respectively.

Turning to `Cc1cc(F)cc(C(=O)NCC2CCN(CC(=O)N(C)C(C)(C)C)CC2)c1` [Compound 540, N-((1-(2-(tert-butyl(methyl)amino)-2-oxoethyl)piperidin-4-yl)methyl)-3-fluoro-5-methylbenzamide], the IC50 is 1.4 µM in experiment [1] (setting [3]) and 0.55 µM in experiment [2] (setting [4]).

Turning to `CC(C(=O)NC(C)(C)C)N1CCC(CNC(=O)c2cc(F)cc(Cl)c2)CC1` (stereo not drawn) [Compound 546, N-((1-(1-(tert-butylamino)-1-oxo-propan-2-yl)piperidin-4-yl)methyl)-3-chloro-5-fluorobenzamide], the values for the IC50 in experiment [1] (setting [3]) and in experiment [2] (setting [4]) were less than 0.3 µM and 0.13 µM, respectively.

For the compound `CC(C(=O)NC(C)(C)C(F)(F)F)N1CCC(CNC(=O)c2cc(F)cc(Cl)c2)CC1` (stereo not drawn) [Compound 547, 3-chloro-5-fluoro-N-((1-(1-oxo-1-(1,1,1-trifluoro-2-methylpropan-2-ylamino)propan-2-yl)piperidin-4-yl)methyl)benzamide], the IC50 is less than 0.3 µM in experiment [1] (setting [3]) and 0.03 µM in experiment [2] (setting [4]).

On to `CC(C(=O)N1CCC[C@H]1C(F)(F)F)N1CCC(CNC(=O)c2cc(F)cc(Cl)c2)CC1` (stereo partly drawn) [Compound 548, 3-chloro-5-fluoro-N-((1-(1-oxo-1-((S)-2-(trifluoromethyl)pyrrolidin-1-yl)propan-2-yl)piperidin-4-yl)methyl)benzamide], for which the half-maximal inhibitory concentration (IC50) in experiment [1] (setting [3]) is less than 0.3 µM; in experiment [2] (setting [4]) it was 0.16 µM.

`CC(C(=O)NC1CCCC1)N1CCC(CNC(=O)c2cc(F)cc(Cl)c2)CC1` (stereo not drawn) [Compound 549, 3-chloro-N-((1-(1-(cyclopentylamino)-1-oxopropan-2-yl)piperidin-4-yl)methyl)-5-fluorobenzamide]: the IC50 in experiment [1] (setting [3]) was less than 0.3 µM; in experiment [2] (setting [4]), 0.11 µM.

For the compound `CC(C(=O)NC1(C)CCCCC1)N1CCC(CNC(=O)c2cc(F)cc(Cl)c2)CC1` (stereo not drawn) [Compound 550, 3-chloro-5-fluoro-N-((1-(1-(1-methylcyclohexylamino)-1-oxopropan-2-yl)piperidin-4-yl)methyl)benzamide], the IC50 in experiment [1] (setting [3]) is less than 0.3 µM; in experiment [2] (setting [4]), 0.02 µM.

Consider `COCC(C)(C)NC(=O)C(C)N1CCC(CNC(=O)c2cc(F)cc(Cl)c2)CC1` (stereo not drawn) [Compound 551, 3-chloro-5-fluoro-N-((1-(1-(1-methoxy-2-methylpropan-2-ylamino)-1-oxopropan-2-yl)piperidin-4-yl)methyl)benzamide], for which the IC50 worked out at 0.37 µM in experiment [1] (setting [3]) and 0.14 µM in experiment [2] (setting [4]).

For the compound `CC.CC(F)CNC(=O)CN1CCC(CNC(=O)c2cc(F)cc(Cl)c2)CC1` (stereo not drawn) [Compound 553, 3-chloro-5-fluoro-N-((1-(2-(2-fluoropropylamino)-2-oxoethyl)piperidin-4-yl)methyl)benzamide compound with ethane (1:1)], the IC50 was determined as 2.52 µM in experiment [1] and 1.73 µM in experiment [2].

For `CC(C)(F)CNC(=O)CN1CCC(CNC(=O)c2cccc(Cl)c2)CC1` [Compound 554, 3-chloro-N-((1-(2-(2-fluoro-2-methylpropylamino)-2-oxoethyl)piperidin-4-yl)methyl)benzamide], the IC50 in experiment [1] (setting [3]) and in experiment [2] (setting [4]) was more than 10 µM throughout.

Consider `CC(C)(F)CNC(=O)CN1CCC(CNC(=O)c2cc(C(F)(F)F)cc(C(F)(F)F)c2)CC1` [Compound 555, N-((1-(2-(2-fluoro-2-methylpropyl-amino)-2-oxoethyl)piperidin-4-yl)methyl)-3,5-bis(trifluoromethyl) benzamide], for which the results for the IC50 in experiment [1] (setting [3]) and in experiment [2] (setting [4]) were 0.53 µM and 0.89 µM, respectively.

In the case of `CC(C)(F)CNC(=O)CN1CCC(CNC(=O)c2cc(F)cc(C(F)(F)F)c2)CC1` [Compound 556, 3-fluoro-N-((1-(2-(2-fluoro-2-methylpropylamino)-2-oxoethyl)piperidin-4-yl)methyl)-5-(trifluoromethyl)benzamide], the IC50 in experiment [1] (setting [3]) stood at 1.37 µM; in experiment [2] (setting [4]), 1.77 µM.

Take `COc1cc(F)cc(C(=O)NCC2CCN(CC(=O)NCC(C)(C)F)CC2)c1` [Compound 557, 3-fluoro-N-((1-(2-(2-fluoro-2-methylpropylamino)-2-oxoethyl)piperidin-4-yl)methyl)-5-methoxy-benzamide]: the half-inhibitory concentration (IC50) in experiment [1] (setting [3]) was 3.58 µM; in experiment [2] (setting [4]), 1.31 µM.

`CC(C(=O)N1CCC[C@@H]1C(F)(F)F)N1CCC(CNC(=O)c2cc(F)cc(Cl)c2)CC1` (stereo partly drawn) [Compound 558, 3-chloro-5-fluoro-N-((1-(1-oxo-1-((R)-2-(trifluoromethyl)pyrrolidin-1-yl)propan-2-yl)piperidin-4-yl)methyl) benzamide]: the IC50 in experiment [1] (setting [3]) was less than 0.3 µM; in experiment [2] (setting [4]) it was 0.46 µM.

As to `CC(C(=O)N1CCSC1)N1CCC(CNC(=O)c2cc(F)cc(Cl)c2)CC1` (stereo not drawn) [Compound 559, 3-chloro-5-fluoro-N-((1-(1-oxo-1-(thiazolidin-3-yl)propan-2-yl)piperidin-4-yl)methyl)benzamide], the concentration for half-maximal inhibition (IC50) was 9.06 µM in experiment [1] (setting [3]) and more than 10 µM in experiment [2] (setting [4]).

As to `CC(C)(C)ONC(=O)CN1CCC(CNC(=O)c2cc(C(F)(F)F)cc(C(F)(F)F)c2)CC1` [Compound 560, N-((1-(2-(tert-butoxyamino)-2-oxoethyl)piperidin-4-yl)methyl)-3,5-bis(trifluoromethyl)benzamide], the IC50 in experiment [1] (setting [3]) was 0.47 µM; in experiment [2] (setting [4]) it was 0.59 µM.

Regarding `O=C(CN1CCC(CNC(=O)c2cc(F)cc(C(F)(F)F)c2)CC1)NC1(C2CCOCC2)CC1` [Compound 561, 3-fluoro-N-((1-(2-oxo-2-(1-(tetrahydro-2H-pyran-4-yl)cyclopropylamino)ethyl)piperidin-4-yl)methyl)-5-(trifluoromethyl) benzamide], the half-inhibitory concentration (IC50) in experiment [1] (setting [3]) was less than 0.3 µM; in experiment [2] (setting [4]), 0.27 µM.

For `COc1cc(F)cc(C(=O)NCC2CCN(CC(=O)NC3(C4CCOCC4)CC3)CC2)c1` [Compound 562, 3-fluoro-5-methoxy-N-((1-(2-oxo-2-(1-(tetrahydro-2H-pyran-4-yl)cyclopropylamino)ethyl)piperidin-4-yl)methyl)benzamide], the figures for the 50% inhibitory concentration (IC50) in experiment [1] (setting [3]) and in experiment [2] (setting [4]) were 0.4 µM and 0.66 µM, respectively.

With `O=C(CN1CCC(CNC(=O)c2cc(F)cc(Cl)c2)CC1)NC1(C2CCOCC2)CC1` [Compound 563, 3-chloro-5-fluoro-N-((1-(2-oxo-2-(1-(tetrahydro-2H-pyran-4-yl)cyclopropylamino)ethyl)piperidin-4-yl)methyl)benzamide], the values for the half-inhibitory concentration (IC50) in experiment [1] (setting [3]) and in experiment [2] (setting [4]) were less than 0.3 µM and 0.31 µM, respectively.
